Key:
[1] = tested on: secretion of Substance P from DRG neurons; test: Substance P secretion, single-cell immunoblot assay; type: cell-based, chick; conditions: DRG neurons pre-incubated with peptide 1.4 μg/ml for 1 hour
Protocol: Secretion Assay: Secretion of substance P was analyzed using the single-cell immunoblot method adapted from Huang and Neher (Huang, L. Y., Neher, E. (1996) Neuron. 17, 135-45.). Briefly, polyvinylidene difluoride transfer membranes (Immobilon P brand from Millipore) were cut to […] and placed in a 6-well plate. Membranes were pre-wetted with methanol for 20 s, rinsed with distilled water and allowed to equilibrate in test solution for >1 hr. In parallel, DRG cells plated were incubated with media containing AP-YF or AP-Scr (1.4 μg/ml) for 1 hour. This media was removed, and replaced with 70 μl of test solution. The membranes were then placed on top of the cells, and allowed to incubate at 37° C. in a humidified CO2 incubator for 30 min. The membranes were then carefully removed from the cells and allowed to dry completely and fixed with powdered paraformaldehyde at 80° C. for 1 hr. Fixed membranes were rinsed in PBS (1 mM KH2PO4, 10 mM Na2HPO4, 137 mM NaCl, 2.7 mM KCl) containing 1% Triton X-100 (PBS-T) to remove excess paraformaldehyde, and blocked with PBS-T containing 3% fetal bovine serum (FBS) for 30 min at room temperature. The membranes were incubated with anti-substance P antibody (Santa Cruz) at 1:200 dilution in PBS-T with 1% FBS overnight in 37° C. incubator. The next day the membranes were developed with a peroxidase/diamninobenzidine (DAB) reaction using the ABC staining kit from Santa Cruz Biotechnology. Images were taken using a CCD camera, and analyzed using Photoshop and NIH image software. Data were plotted by assigning an upper and lower limit of gray values and plotting % of cells at a range within those limits. By plotting graphs as % of cells in a dynamic range, multiple experimental runs were pooled.

[2] = tested on: cell-surface myc-L1-CAM on ND-7 cells; test: L1-CAM diffusion behavior assay: movement of 9E10-coated beads bound to myc-L1-CAM (video microscopy, laser tweezers); type: cell-based, rat
Text: Video microscopy, laser tweezers, and data analysis: The 9E10-coated latex beads were then placed and held with an optical gradient laser trap on the surface of transfected cells at a distance of between 0.5 and 1 μm from the leading edge for 2 seconds. The laser trap consisted of a Titanium Sapphire (Coherent; model 890) solid state laser pumped by a 5 W frequency-doubled Neodymnium Vanadate laser (Verdi; Coherent) and tuned to 800 nm. This wavelength was previously determined to generate the fewest heating artifacts in live cells (Svoboda and Block. Biomol Struct 1994;23:-247-285 and Choquet et al. Cell 1997;88:39-48). Laser power at the output of the Titanium Sapphire laser was 40 mW, and prepared beads were placed and held on the cell surface for less than 3 sec to further reduce the possibility of heating artifacts. Laser light was introduced through the television port of the Axiovert microscope.
Video images of bead movement were collected using a newvicon camera (Dage MTI; VE-1000N) and background subtraction and contrast enhancement were carried using a Hamamatsu Argus 20 image processor. Raw data were recorded to sVHS video tape for subsequent analysis. Video recordings were subsequently digitized onto an Intel processor-based computer running the Isee imaging software (Isee Imaging) running under Red Hat Linux 7.1. Quantification of bead movement was carried out in Isee. Diffusional analysis was carried out using a custom spreadsheet in Excel (Microsoft). This spreadsheet carries out 4 operations: first, it scales the data from pixel measurements to nm using the appropriate scale factor (determined by the magnification used to observe bead movement); second, it subtracts the first point from all of the data, to set the origin at 0,0 (x,y coordinates); third, it rotates (in two dimensional space) the data around the origin so that the orientation of the cell is the same from trial to trial (here, the data was set so that the cells all face to the left); and fourth, the spreadsheet calculates the mean square displacement (MSD) data which are used to calculate diffusion coefficients and bead velocity. Individual traces were scored blind for classes of behavior. Statistical analysis of percentages of trials was carried out using chi-squared analysis or a Fisher's exact probability test.
MSD values were calculated as previously described (see Qian et al, 1991; Biophysical Journal 60 p910). For these calculations, the squared displacement (a^2+b^2; where a=xn+t−xn, b=a=yn+t−yn for any two points separated by time t) of the bead was calculated between two points in the data set. The mean of the squared displacements was calculated for each time interval t=1 to m, where m is the time interval that equals 10% of the length of the data set. The mean displacement was plotted with respect to time giving a curve with a linear or quadratic shape, depending on the behavior of the bead. Diffusion rates and velocity were calculated by fitting the curve with the equation MSD=4Dt+v^2t^2, where D is the diffusion coefficient, v is the velocity and t is time. D and v were calculated for each bead independently and presented as averages or as individual values, as described in each case.
Cell culture and transfection: ND-7 cells (rat neuroblastoma/DRG hybrid cells) were plated and transfected with pMyc-L1-CAM, pMyc-L1-CAM-YF, pMyc-L1-CAM-YH, or pMyc-L1-CAM-STOP expression constructs as described in Example 3, supra.
In some instances, ND-7 cells transfected with pMyc-L1-CAM were treated with the cytoskeletal inhibitor cytochalasin D (2 μM; Sigma) or nocadazole (1 μM; Sigma). For these experiments treatment with DMSO (0.01%) vehicle alone served as the negative control.
In some instances, ND-7 cells transfected with pMyc-L1-CAM were treated with neural growth factor (NGF) to stimulate phosphorylation of tyrosine 1229 (Y1229) of the L1-CAM cytoplasmic domain, and thereby inhibit ankyrin binding. […]

[3] = tested on: complex containing L1-CAM, ankyrin B and Cav2.2; test: Co-precipitation of L1-CAM and ankyrin B with Cav2.2 channel protein from DRG neurons; type: cell-based; conditions: chick DRG neurons treated with saline; peptide pretreatment
Protocol: Co-precipitation: 1×10^6 DRG cells were used for each condition. DRG neurons were exposed to control solution containing 100 μM bicuculline or 100 μM GABA in the presence of 100 μM bicuculline. After agonist treatment, DRG neurons were lysed with ice-cold buffer (phosphate buffered saline, pH 7.4, containing 250 μM sodium pervanadate, 1% (v/v) NP-40, 1 mM Pefabloc, 1 mM EDTA, 1 mM EGTA, 10 μg/ml pepstatin, 10 μg/ml leupeptin, and 100 μg/ml soybean trypsin inhibitor, 100 μg/ml calpain I and 100 μg/ml calpain II inhibitors. The α1subunit of the Cav2.2 channel was immunoprecipitated as previously described (Schiff, M. L et al., (2000). Nature 408:723-726.).
Cell culture, transmitter application: Cell culture and transmitter application, were performed as described in Example 10, supra. For experiments determining the effect of activation of GABAB receptors upon L1-CAM-ankyrin-calcium channel interaction in DRG neurons, calcium channels were precipitated from DRG neurons treated with saline or baclofen for 20 seconds using anti-pan alpha 1 antibody and then immunoblotted for ankyrin (anti-ankyrin B antibody) or L1-CAM (8D9 anti-NgCAM).

[4] = ND-7 cells expressing myc-L1-CAM, 1.4 μg/ml peptide for 30 minutes

Sequence	high K^+-induced secretion of Substance P [1]	percentage of beads showing stationary behavior [2, 4]	percentage of trials undergoing retrograde movement [2, 4]	co-precipitation of L1-CAM and ankyrin B with Cav2.2 channel protein [3]	bead velocity compared to untreated controls ([2]; 1.4 μg/ml peptide)
RQIKIWFQNRRMKWKKQFNEDGSFIGQF [AP-YF]	blocks high K^+-induced secretion	reduced	increase	abolished the interaction	
RQIKIWFQNRRMKWKKFQGIFSGDENFQ [AP-Scramble]	did not affect secretion significantly			not	no significant effect

Source: patent US7737250B2, “Peptides for treating axonal damage, inhibition of neurotransmitter release and pain transmission, and blocking calcium influx in neurons” (Mount Sinai School of Medicine of New York University, priority 2003, dated 2010)
